In US8604046B2, “Substituted piperidine spiro pyrrolidinone and piperidinone, preparation and therapeutic use thereof” (Sanofi, priority 2008, dated 2013):

How the values were obtained:
rhesus H3 receptor [1] = target: T1, rhesus H3 receptor (Macaca mulatta, UniProt Q865E1); experiment: Rhesus H3 [3H]-methylhistamine radioligand binding assay; set-up: species or system rhesus monkey (Macacca Mulatta); conditions: [3H]-Methylhistamine 2 nM, rhesus H3 membranes, WGA SPA beads, Cheng-Prusoff
How it was run: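 Membranes from tetracycline-induced (500 ng/ml, 24 h) Flp-In T-REx 293 cells expressing 445-aa rhesus H3 receptor, 20-30 μg protein per reaction. WGA SPA format with 2 nM [3H]-methylhistamine, 1 hour at 25° C; Ki obtained via Hill transformation and Cheng-Prusoff equation.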

rhesus H3 receptor [2] = target: T1, rhesus H3 receptor; experiment: GTPγS radioligand binding assay, inhibition of rhesus H3 constitutive functional activity (inverse agonism); assay type: biochemical, rhesus monkey (Macacca Mulatta); set-up: concentration or dose not given beside the values; conditions: rhesus H3 cell membranes, relative to basal levels
How it was run: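 Membranes from tetracycline-induced (500 ng/ml, 24 h) Flp-In T-REx 293 cells stably expressing the 445-aa rhesus H3 receptor, resuspended in 5 mM HEPES pH 7.4 at 10 mg/ml protein. Inverse agonism measured as inhibition of constitutive GTPγS binding.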

T1 sequence (Q865E1 1-445): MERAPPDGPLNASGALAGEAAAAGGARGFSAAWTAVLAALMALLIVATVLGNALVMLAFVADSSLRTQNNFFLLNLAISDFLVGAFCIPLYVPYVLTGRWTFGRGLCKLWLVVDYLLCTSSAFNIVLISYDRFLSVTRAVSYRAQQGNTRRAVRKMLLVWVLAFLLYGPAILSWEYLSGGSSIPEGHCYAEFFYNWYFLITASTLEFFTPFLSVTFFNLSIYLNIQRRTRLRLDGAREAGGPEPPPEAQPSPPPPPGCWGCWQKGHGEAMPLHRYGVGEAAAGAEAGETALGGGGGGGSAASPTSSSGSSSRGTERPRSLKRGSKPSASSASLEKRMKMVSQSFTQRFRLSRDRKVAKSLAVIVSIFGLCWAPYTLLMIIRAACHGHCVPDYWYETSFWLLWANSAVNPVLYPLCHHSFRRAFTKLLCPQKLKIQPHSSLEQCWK

Compound	Ki (rhesus H3 receptor [1]) [nM]	Inverse Agonism: % inhibition of Basal GTPγS binding in Rhesus H3 (rhesus H3 receptor [2]) [%]
C[C@H]1CCCCN1[C@H]1CCN(c2ccc(N3CCC4(CCN(C(=O)C5CCCC5)CC4)C3=O)c(C(F)(F)F)c2)C1 [Example 55, 8-Cyclopentanecarbonyl-2-{4-[3-((2S,3′S)-2-methyl-piperidin-1-yl)-pyrrolidin-1-yl]-2-trifluoromethyl-phenyl}-2,8-diaza-spiro[4.5]decan-1-one]	2.1	−27
COCC(=O)N1CCC2(CC1)CCN(c1ccc(N3CC[C@H](N4CCC[C@@H]4C)C3)cc1C(F)(F)F)C2=O [Example 61, 8-(2-Methoxy-acetyl)-2-[4-((2S,3′S)-2-methyl-[1,3′]bipyrrolidinyl-1′-yl)-2-trifluoromethyl-phenyl]-2,8-diaza-spiro[4.5]decan-1-one]	193	−7
C[C@H]1CCCN1C1CCN(c2ccc(N3CCC4(CCN(CC5CCCC5)CC4)C3=O)c(F)c2)CC1 [Example 57, 8-Cyclopentyl methyl-2-{2-fluoro-4-[4-(2S-2-methyl-pyrrolidin-1-yl)-piperidin-1-yl]-phenyl}-2,8-diaza-spiro[4.5]decan-1-one]	0.1	−21
Cc1cc(N2CCC(N3CCCC3C)C2)ccc1N1CCC2(CCN(CC3CCCC3)CC2)C1=O (stereo not drawn) [Example 14, 8-Cyclopentylmethyl-2-[2-methyl-4-(2-methyl-[1,3′]bipyrrolidinyl-1′-l)-phenyl]-2,8-diaza-spiro[4.5]decan-1-one]	5.6	−31
Cc1cc(N2CC[C@H](N3CCC[C@H]3C)C2)ccc1N1CCC2(CCN(CC3CCCC3)CC2)C1=O [Example 10, 8-Cyclopentyl methyl-2-[2-methyl-4-((2R,3′S)-2-methyl-[1,3′]bipyrrolidinyl-1′-l)-phenyl]-2,8-diaza-spiro[4.5]decan-1-one]	12	−26
C[C@H]1CCCN1C1CCN(c2ccc(N3CCC4(CCN(C(=O)OC(C)(C)C)CC4)C3=O)cc2)CC1 [Example 38, 2-{4-[4-(2S-2-Methyl-pyrrolidin-1-yl)-piperidin-1-yl]-phenyl}-1-oxo-2,8-diaza-spiro[4,5]decane-8-carboxylic acid tert-butyl ester]	0.008	−25
C[C@H]1CCCN1[C@H]1CCN(c2ccc(N3CCC4(CCN(CC5CC5)CC4)C3=O)c(C(F)(F)F)c2)C1 [Example 67, 8-Cyclopropylmethyl-2-[4-((2S,3′S)-2-methyl-[1,3′]bipyrrolidinyl-1′-yl)-2-trifluoromethyl-phenyl]-2,8-diaza-spiro[4.5]decan-1-one]	1.4	−12
C[C@H]1CCCCN1[C@H]1CCN(c2ccc(N3CCC4(CCNCC4)C3=O)c(F)c2)C1.Cl [Example 49, 2-{4-[3-((2S,3′S)-2-Methyl-piperidin-1-yl)-pyrrolidin-1-yl]-2-fluoro-phenyl}-2,8-diaza-spiro[4.5]decan-1-one Hydrochloride]	0.5	−22
C[C@H]1CCCN1C1CCN(c2ccc(N3CCC4(CCN(C(=O)OC(C)(C)C)CC4)C3=O)c(C(F)(F)F)c2)CC1 [Example 39, 2-{4-[4-(2S-2-Methyl-pyrrolidin-1-yl)-piperidin-1-yl]-2-trifluoromethyl-phenyl}-1-oxo-2,8-diaza-spiro[4.5]decane-8-carboxylic acid tert-butyl ester]	0.9	−22
C[C@H]1CCCCN1[C@H]1CCN(c2ccc(N3CCC4(CCN(CC5CCCCC5)CC4)C3=O)c(C(F)(F)F)c2)C1 [Example 58, 8-Cyclohexyl methyl-2-{4-[3-((2S,3′S)-2-methyl-piperidin-1-yl)-pyrrolidin-1-yl]-2-trifluoromethyl-phenyl}-2,8-diaza-spiro[4.5]decan-1-one]	0.15	−19
C[C@H]1CCCCN1[C@H]1CCN(c2ccc(N3CCC4(CCNCC4)C3=O)cc2)C1.Cl [Example 47, 2-{4-[3-((2S,3′S)-2-Methyl-piperidin-1-yl)-pyrrolidin-1-yl]-phenyl}-2,8-diaza-spiro[4.5]decan-1-one Hydrochloride]	0.4	−17
C[C@H]1CCCCN1[C@H]1CCN(c2ccc(N3CCC4(CCN(S(=O)(=O)c5ccc(F)cc5)CC4)C3=O)cc2)C1 [Example 53, 8-(4-Fluoro-benzenesulfonyl)-2-{4-[3-((2S,3′S)-2-methyl-piperidin-1-yl)-pyrrolidin-1-yl]-phenyl}-2,8-diaza-spiro[4.5]decan-1-one]	1.9	−13
Cc1cc(N2CC[C@H](N3CCC[C@@H]3C)C2)ccc1N1CCCC2(CCN(C(=O)OC(C)(C)C)CC2)C1=O [Example 20, 2-[2-Methyl-4-((2S,3′S)-2-methyl-[1,3′]bipyrrolidinyl-1′-yl)-phenyl]-1-oxo-2,9-diaza-spiro[5.5]undecane-9-carboxylic acid tert-butyl ester]	6.8	−18
C[C@H]1CCCN1[C@H]1CCN(c2ccc(N3CCCC4(CCN(C(=O)c5ccccc5)CC4)C3=O)cc2)C1 [Example 28, 9-Benzoyl-2-[4-((2S,3′S)-2-methyl-[1,3′]bipyrrolidinyl-1′-yl)-phenyl]-2,9-diaza-spiro[5.5]undecan-1-one]	0.5	−15
C[C@H]1CCCN1[C@H]1CCN(c2ccc(N3CCCC4(CCN(C5CCOCC5)CC4)C3=O)cc2)C1 [Example 35, 2-[4-((2S,3′S)-2-Methyl-[1,3′]bipyrrolidinyl-1′-yl)-phenyl]-9-(tetrahydro-pyran-4-yl)-2,9-diaza-spiro[5.5]undecan-1-one]	0.04	−18
Cc1cc(N2CC[C@@H](N3CCC[C@@H]3C)C2)ccc1N1CCC2(CCN(C(=O)c3ccc(OC(F)(F)F)cc3)CC2)C1=O [Example 17, 2-[2-Methyl-4-((2S,3′R)-2-methyl-[1,3′]bipyrrolidinyl-1′-yl)-phenyl]-8-(4-trifluoromethoxy-benzoyl)-2,8-diaza-spiro[4.5]decan-1-one]	1.4	−9
C[C@H]1CCCN1[C@H]1CCN(c2ccc(N3CCCC4(CCN(Cc5ccco5)CC4)C3=O)c(F)c2)C1 [Example 37, 2-[2-Fluoro-4-((2S,3′S)-2-methyl-[1,3′]bipyrrolidinyl-1′-yl)-phenyl]-9-furan-2-ylmethyl-2,9-diaza-spiro[5.5]undecan-1-one]	0.1	−17
Cc1cc(N2CC[C@H](N3CCC[C@@H]3C)C2)ccc1N1CCCC2(CCN(CC3CCCCC3)CC2)C1=O [Example 33, 9-Cyclohexylmethyl-2-[2-methyl-4-((2S,3′S)-2-methyl-[1,3′]bipyrrolidinyl-1′-yl)-phenyl]-2,9-diaza-spiro[5.5]undecan-1-one]	0.2	−14
Cc1cc(N2CC[C@@H](N3CCC[C@@H]3C)C2)ccc1N1CCC2(CCN(C(=O)OC(C)(C)C)CC2)C1=O [Example 3, 2-[2-Methyl-4-((2S,3′R)-2-methyl-[1,3′]bipyrrolidinyl-1′-yl)-phenyl]-1-oxo-2,8-diaza-spiro[4.5]decane-8-carboxylic acid tert-butyl ester]	7	−23
Cc1cc(N2CC[C@@H](N3CCC[C@H]3C)C2)ccc1N1CCC2(CCN(C(=O)OC(C)(C)C)CC2)C1=O [Example 2, 2-[2-Methyl-4-((2R,3′R)-2-methyl-[1,3′]bipyrrolidinyl-1′-yl)-phenyl]-1-oxo-2,8-diaza-spiro[4.5]decane-8-carboxylic acid tert-butyl ester]	248	−30
C[C@H]1CCCN1[C@H]1CCN(c2ccc(N3CCC4(CCN(Cc5ccco5)CC4)C3=O)c(C(F)(F)F)c2)C1 [Example 66, 8-Furan-2-ylmethyl-2-[4-((2S,3′S)-2-methyl-[1,3′]bipyrrolidinyl-1′-yl)-2-trifluoromethyl-phenyl]-2,8-diaza-spiro[4.5]decan-1-one]	5.5	−19
Cc1cc(N2CC[C@H](N3CCC[C@@H]3C)C2)ccc1N1CCC2(CCN(CC3CCCC3)CC2)C1=O [Example 13, 8-Cyclopentylmethyl-2-[2-methyl-4-((2S,3′S)-2-methyl-[1,3′]bipyrrolidinyl-1′-l)-phenyl]-2,8-diaza-spiro[4.5]decan-1-one]	0.8	−37
C[C@H]1CCCN1[C@H]1CCN(c2ccc(N3CCCC4(CCN(C(=O)C5CCCCC5)CC4)C3=O)c(F)c2)C1 [Example 30, 9-Cyclohexanecarbonyl-2-[2-fluoro-4-((2S,3′S)-2-methyl-[1,3′]bipyrrolidinyl-1′-yl)-phenyl]-2,9-diaza-spiro[5.5]undecan-1-one]	0.7	−22
C[C@H]1CCCN1[C@H]1CCN(c2ccc(N3CCC4(CCN(C(=O)c5ccc6ccccc6c5)CC4)C3=O)c(C(F)(F)F)c2)C1 [Example 62, 2-[4-((2S,3′S)-2-Methyl-[1,3′]bipyrrolidinyl-1′-yl)-2-trifluoromethyl-phenyl]-8-(naphthalene-2-carbonyl)-2,8-diaza-spiro[4.5]decan-1-one]	8.1	−19
